Source: PubChem BioAssay (NCI)
Values joined by “and” are separate entries in the source; they are usually repeats but may differ in a detail not shown here. Identical values can stand only once.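 Values below derive from 48-hour exposures of cells grown in 96-well plates, with endpoints linearly interpolated between the two concentrations bracketing the appropriate inhibition level. At the GI50, growth is halved. TGI is the concentration that stops growth completely.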

Experiments:
Assay in all cases: NCI tumour cell line growth inhibition, 48 h
CCRF-CEM leukemia = test system: CCRF-CEM leukemia
OVCAR-8 ovarian = test system: OVCAR-8 ovarian
NCI-H522 lung = test system: NCI-H522 lung
BT-549 breast = test system: BT-549 breast
HOP-92 NSCLC = test system: HOP-92 NSCLC
SF-539 CNS = test system: SF-539 CNS
T-47D breast = test system: T-47D breast
HL-60(TB) leukemia = test system: HL-60(TB) leukemia
SF-295 CNS = test system: SF-295 CNS
OVCAR-3 ovarian = test system: OVCAR-3 ovarian

| Compound | GI50 (CCRF-CEM leukemia) [µM] | TGI (CCRF-CEM leukemia) [µM] | GI50 (OVCAR-8 ovarian) | TGI (OVCAR-8 ovarian) [µM] | GI50 (NCI-H522 lung) | TGI (NCI-H522 lung) [µM] | GI50 (BT-549 breast) | TGI (BT-549 breast) [µM] | GI50 (HOP-92 NSCLC) | TGI (HOP-92 NSCLC) | GI50 (SF-539 CNS) | TGI (SF-539 CNS) | GI50 (T-47D breast) | TGI (T-47D breast) [µM] | GI50 (HL-60(TB) leukemia) | TGI (HL-60(TB) leukemia) | GI50 (SF-295 CNS) [µM] | TGI (SF-295 CNS) | GI50 (OVCAR-3 ovarian) | TGI (OVCAR-3 ovarian) |
| --- | --- | --- | --- | --- | --- | --- | --- | --- | --- | --- | --- | --- | --- | --- | --- | --- | --- | --- | --- | --- |
| Clc1nc(Cl)c2ncn(C/C=C/COc3cccc(OC/C=C/Cn4cnc5c(Cl)nc(Cl)nc54)c3)c2n1 | 31 | > 100 | > 100 µM | > 100 | > 100 µM | > 100 | 66.1 µM | > 100 | > 100 µM | > 100 µM | > 100 µM | > 100 µM | 99.8 µM | > 100 | 14.7 µM | 27.8 µM | > 100 | > 100 µM | 95 µM | > 100 µM |
| COc1ccc(C2SC(C)C(=O)N2NC(=O)C(O)c2ccccc2)cc1OC (stereo not given) | > 100 | > 100 | > 100 µM | > 100 | > 100 µM | > 100 | > 100 µM | > 100 | > 100 µM | > 100 µM | > 100 µM | > 100 µM | > 100 µM | > 100 | > 100 µM | > 100 µM | > 100 | > 100 µM | > 100 µM | > 100 µM |
| O=C(NC[C@H](O)CO)c1ccncc1Nc1ccc(I)cc1F | > 100 | > 100 | > 10 µM and 37.4 µM | > 100 | 4.95 µM and 33.2 µM | > 100 | > 10 µM and 23.3 µM | > 95 | 0.0509 µM and 0.0379 µM | 1.2 µM and 3.61 µM | > 10 µM and 23.2 µM | > 100 µM | > 10 µM and 19.3 µM | > 100 | 0.00228 µM and < 0.01 µM | > 54.2 µM | > 41 | > 100 µM | > 10 µM and 20.1 µM | > 100 µM |
| CCN(CC)Cc1ccc(Nc2nccc(-c3cnn4ncccc34)n2)cc1 | 0.0148 | > 25 | 0.0133 µM | > 25 | 0.049 µM | 0.116 | 0.0377 µM | 0.139 | 0.00833 µM | 0.0977 µM | 0.00973 µM | 0.0781 µM | 0.0542 µM | 6.6 | 0.00687 µM | 0.0229 µM | 0.0311 | > 25 µM | 0.0115 µM | 0.106 µM |
| COc1ccc(/C=C\c2cc(OC)c(OC)c(OC)c2)cc1OC | 0.0791 |  | 0.275 µM |  | 0.154 µM |  |  | > 100 | 0.0473 µM | 40.4 µM and 8.55 µM | 0.0605 µM | 0.294 µM and 0.283 µM |  | > 100 | 0.0231 µM | 0.332 µM and 0.0582 µM | 0.0672 | 40.4 µM and > 100 µM | 0.0543 µM | 0.256 µM and 0.801 µM |
| Cn1cc(C2=C(c3cccc(OCC(O)CO)c3)C(=O)NC2=O)c2ccccc21 (stereo not given) | > 25 | > 25 | > 25 µM | > 25 | > 25 µM | > 25 | > 25 µM | > 25 | > 25 µM | > 25 µM | > 25 µM | > 25 µM | > 25 µM | > 25 | > 25 µM | > 25 µM | > 25 | > 25 µM | > 25 µM | > 25 µM |
